From US8129340B2, “Inhibitors of protein phosphatase 1, GADD34 and protein phosphatase 1/GADD34 complex, preparation and uses thereof” (Institut Gustave Roussy, priority 2006, dated 2012)
Peptide text beside a SMILES is read from it. * marks the point of attachment. Cbz = O=C(OCc1ccccc1)*; CH2F = FC*

Tests used:
CT26 cells = assay: Phagocytosis of CT26 tumour cells by dendritic cells (FACS, double positive cells); format: cell-based, BALB/c mice; conditions: cells transfected with siRNA
Description: FIG. 3A, FIG. 3B: Correlation between tumour cell phagocytosis and CRT exposure. Tumour cells labelled with Cell Tracker Green were cultured with CD11c-expressing DC and the percentage of DC taking up tumour cells was determined (A) and correlated with the CRT surface exposure (B), measured as in FIG. 2E.
Mitoxantrone-treated or control cells were incubated with a blocking chicken anti-CRT antibody, followed by detection of phagocytosis by CD.
Cells were transfected with the indicated siRNAs and optionally treated with rCRT, followed by immunoblot (FIG. 3D) detection of surface CRT (FIG. 3E) and phagocytosis by DC (FIG. 3F). Results are triplicates (X±SD) and representative of three independent experiments. * denotes statistically significant differences using the Student t′ test at p<0.001.
BM cells were flushed from the tibias and femurs of BALB/c mice with culture medium composed of RPMI 1640 medium (Invitrogen Life Technologies) supplemented with 10% heat-inactivated FBS (Invitrogen), sodium pyruvate, 50 μM 2-ME (Sigma), 10 mM HEPES (pH 7.4), and penicillin/streptomycin (Invitrogen). After one centrifugation, BM cells were resuspended in Tris-ammonium chloride for 2 min to lyse RBC. After one more centrifugation, BM cells (1×10^6 cells/ml) were cultured in medium supplemented with 100 ng/ml recombinant mouse FLT3 ligand (R&D systems) in 6-well plates (Costar Corning). After 7 days, the non-adherent and loosely adherent cells were harvested with Versene, washed and transferred in 12-well plates (1.5×10^6 cells/plate) for cocultures with tumour cells.
In 12-well plates, […] adherent CT26 cells were labelled with Celltracker Green (Calbiochem) and then incubated with drugs. In some experiments viable CT26 were coated with 2 μg/10^6 cells of chicken anti-CRT antibody (ABR affinity bioreagents) or an isotype control for 30 min prior to washing and feeding to dendritic cells Cs. Alternatively CT26 cells were coated with 2 μg/10^6 cells of rCRT on ice for 30 min and washed twice prior to addition to dendritic cells. Cells were then harvested, washed three times with medium supplemented with FBS and cocultured with immature DC for 2 hours at a ratio of 1:1 and 1:5. At the end of the incubation, cells were harvested with versene, pooled with non-adherent cells present in the supernatant, washed and stained with CD11c-FITC antibody. Phagocytosis was assessed by FACS analysis of double positive cells. Phagocytic indexes refer to the ratio between values obtained at 4° C. and values obtained at 37° C. of co-incubation between DC and tumour cells.

CT26 colon cancer cells = assay: In vivo anti-cancer vaccination: treated tumour cells in one flank and live tumour cells in opposite flank simultaneously; design: species or system BALB/c mice
Description: FIG. 4A: In vivo anti-cancer vaccination depends on CRT. CT26 colon cancer cells were transfected with the indicated siRNAs, then treated with rCRT and/or mitoxantrone (as in FIG. 3D) and the anti-tumour response was measured by simultaneously challenging BALB/c mice with mitoxantrone treated tumour cells in one flank and untreated live tumour cells in the opposite flank.
FIG. 4D: CRT-mediated amelioration of the immune response against etoposide-treated tumour cells. CT26 cells were treated for 24 h with etoposide (or PBS) and rCRT was optionally absorbed to the cell surface (inserts), followed by simultaneous injection of the etoposide ±rCRT-treated tumour cells and live tumour cells in opposite flanks and monitoring of tumour growth.
(§1) Tumours were evaluated weekly, using a caliper.

CT26 tumour cells [1] = assay: Local immune response: tumour cells injected into foot pad, IFN-γ secretion by draining popliteal lymph node cells (ELISA); format: in vivo, Balb/c mice; conditions: cells injected into the foot pad
Description: FIG. 4B: Priming of T cell responses depending on CRT. CT26 tumour cells were left untransfected or transfected with the indicated siRNAs, then treated with medium alone, mitomycin C or mitoxantrone and injected into the right food pad of Balb/c mice. Five days later, mononuclear cells from the draining popliteal lymph nodes were challenged with freeze-thawed CT26 cells, and IFN-γ secretion was assessed at 72 hrs.
FIG. 4C: Exogenous supply of CRT enhances the immunogenicity of CRT-negative dying cells. CT26 cells lacking CRT expression after depletion of CRT with a siRNA and mitoxantrone treatment or after mitomycin treatment were coated with rCRT (inserts) and then injected in the food pad, followed by assessment of the IFN-γ secretion by cells from the draining lymph nodes as in FIG. 4B.
as §1

CT26 tumour cells [2] = assay: Anti-tumour vaccination: dying treated CT26 cells injected in one flank, later challenge with live tumour cells; format: in vivo, BALB/c mice
cell surface CRT = assay: Fluorescence detection of cell surface CRT on CT26 cells (cytofluorometry); format: cell-based, murine; conditions: agent alone; for induction of ecto-CRT and/or ecto-Erp57: tumour cells
Description: FIG. 1SA, FIG. 1SB: Kinetics of CRT exposure. CT26 cells were treated with mitoxantrone for the indicated period, followed by immunofluorescence staining with a CRT-specific antibody and cytofluorometric analysis.
FIG. 2E: Correlation between CRT exposure and immunogenicity. The surface exposure of CRT was determined by immunofluorescence cytometry while gating on viable (propidium iodine-negative) cells (inserts) and was correlated with the immunogenicity of cell death (as determined in FIG. 1). CO, control; Tg, thapsigargin; Tu, tunicamycin.
FIG. 5E: Kinetics of CRT exposure determined by FACS analysis after incubation of cells with the indicated agents.
FIG. 5F-FIG. 5G: PP1/GADD34 inhibitors render cell immunogenic via CRT. Tumour cells were first transfected with a control siRNA or a CRT-specific siRNA and then treated in vitro with etoposide, alone or in combination with PP1/GADD34 inhibitors. […] The results represent the % of tumour free mice (comprising a total of 12 to 18 mice per group).
CT26 cells (on a glass slide or in 12-well plates) were first washed with FACS buffer (1×PBS, 5% fetus bovine serum, and 0.1% sodium azide) and then incubated with rabbit anti-mouse CRT antibody (1:100, Stressgen) in FACS buffer at 4° C. for 30 min. Cells reacted with anti-rabbit IgG (H+L) Alexa fluor 488-conjugates (1:500) in FACS buffer at 4° C. for 30 min. After washing three times with FACS buffer, surface CRT was detected by cytofluorometric analysis on a FACS Vantage. In some experiments, cells were fixed with 4% paraformaldehyde, counterstained with Hoechst (2 μM; Sigma), followed by fluorescence microscopic assessment with a Leica IRE2 microscope equipped with a DC300F camera.

CT26 tumours [3] = assay: Intratumoural treatment of established CT26 tumours in immunocompetent mice; format: in vivo, BALB/c mice (wild type); conditions: mouse, in vivo
CT26 tumours [4] = assay: Intratumoural treatment of established CT26 tumours in immunodeficient mice; format: in vivo, athymic nu/nu Balb/c mice; conditions: mouse, in vivo
calreticulin [5] = assay: Calreticulin exposure by immunofluorescence staining and flow cytometry, HCT116 cells; format: cell-based, human; conditions: 2 hours
Description: (§2) HCT116 cells (FIG. 7A) or CT26 cells (FIG. 7B) were cultured in complete mediums supplemented with 10% fetal calf serum alone or in the presence of the control peptide (VKKKKIKREIKI-lkaravafsekv) (SEQ ID NO: 17) or the PP1/GADD34 inhibitory peptide (VKKKKIKREIKI-lkarkvrfsekv, SEQ ID NO: 4. denominated PP1 peptide) for 2 hours. Cells were washed twice with PBS and fixed in PFA (4% w/v) for 5 min. Cells were stained with an antibody against calreticulin (pAb from Abeam, ab2907) at 1:200 dilution or isotype control, in staining buffer (PBS, 1% FCS) for 30 min on ice, followed by washing. An anti-rabbit Alexa fluor 488 immunoglobulin conjugate (Molecular Probes-Invitrogen) diluted at 1:500 was added for an additional 30 min on ice before washing and analysed by flow cytometry (FACScan, Becton Dickinson). Propidium Iodide (50 μg/ml, Becton Dickinson) was added to the samples to label and exclude permeabilized (dead) cells.

calreticulin [6] = assay: Calreticulin exposure by immunofluorescence staining and flow cytometry, CT26 cells (peptide test); format: cell-based, murine; conditions: 2 hours
Description: as §2

[7] = dying CT26 cells treated with agent injected into one flank, live tumour cells in opposite flank 8 days later

5′-rCrCrGrCUrGrGrGUrCrGrArAUrCrRrArATT-3′ [CRT-specific siRNA]
phagocytosis of anthracyclin-treated tumour cells by DC after siRNA knockdown of CRT (CT26 cells): suppressed the phagocytosis of anthracyclin-treated tumour cells | immunogenicity of mitoxantrone-treated CT26 cells (efficacy of anti-tumour vaccination) (CT26 colon cancer cells; cells injected into the flank of Balb/c mice): compromised the immunogenicity of mitoxantrone-treated CT26 cells | immunogenicity of mitoxantrone-treated CT26 cells (interferon-γ production by T cells from popliteal lymph node) (CT26 tumour cells [1]): compromised the immunogenicity of mitoxantrone-treated CT26 cells

CCCCCCCCCCCCC/C=C/[C@@H](O)[C@H](CO)NC(C)=O [C2 ceramide, C2-ceramide]
immunogenicity of cell death (protection against tumour growth, anti-tumour vaccination) (CT26 tumour cells [2]; [7]): failed to induce immunogenic apoptosis

CCOc1ccc(-c2nc3ccc(-c4nc5ccc(N6CCN(C)CC6)cc5[nH]4)cc3[nH]2)cc1 [Hoechst 33342]
immunogenicity of cell death (protection against tumour growth, anti-tumour vaccination) (CT26 tumour cells [2]; [7]): failed to induce immunogenic apoptosis

COC(=O)C[C@H](NC(=O)[C@H](C)NC(=O)[C@@H](NC(=O)OCc1ccccc1)C(C)C)C(=O)CF [Z-VAD-fmk] (Cbz-Val-Ala-Asp(OMe)-CH2F)
effect on immunogenicity of doxorubicin-elicited cell death (CT26 tumour cells [2]; combined with doxorubicin): reduces the immunogenicity of doxorubicin-elicited cell death

C[C@H]1CCC/C=C/[C@@H]2C[C@H](O)C[C@H]2[C@H](O)/C=C/C(=O)O1 [brefeldin, brefeldin A]
immunogenicity of cell death (protection against tumour growth, anti-tumour vaccination) (CT26 tumour cells [2]; [7]): failed to induce immunogenic apoptosis

COC[C@@H]([C@H](O)[C@H](O)C(=O)NCC[C@H](C)c1nc(/C=C/C[C@@H]2O[C@]3(C[C@@H](O)[C@@H]2C)O[C@H]([C@H](C[C@H](O)[C@H](C)[C@H](O)[C@H](C)/C=C(C)/C(C)=C/C=C/C(C)=C\C#N)OC)[C@H](OP(=O)(O)O)C3(C)C)co1)N(C)C [calyculin A]
induction of immunogenic cell death by the inhibitor alone (CT26 tumour cells [2]; without cell death inducer): not sufficient to induce immunogenic cell death | induction of CRT exposure at the cell surface (cell surface CRT): efficiently induced

CC[C@@]1(O)C(=O)OCc2c1cc1n(c2=O)Cc2cc3ccccc3nc2-1 [camptothecin]
immunogenicity of cell death (protection against tumour growth, anti-tumour vaccination) (CT26 tumour cells [2]; [7]): failed to induce immunogenic apoptosis

COc1cc([C@@H]2c3cc4c(cc3[C@@H](O[C@@H]3O[C@@H]5CO[C@@H](C)O[C@H]5[C@H](O)[C@H]3O)[C@H]3COC(=O)[C@H]23)OCO4)cc(OC)c1O [etoposide]
immunogenicity of cell death (protection against tumour growth, anti-tumour vaccination) (CT26 tumour cells [2]; [7]): failed to induce immunogenic apoptosis | induction of ecto-CRT and/or ecto-Erp57 (cell surface CRT): fail to induce ecto-CRT and/or ecto-Erp57 | immunogenicity of sham-coated etoposide-treated cells (CT26 colon cancer cells; sham-coated cells treated with etoposide): poorly immunogenic | therapeutic effect of single agent on established tumours, immunocompetent mice (CT26 tumours [3]): no major therapeutic effect | therapeutic effect of single agent on established tumours, nu/nu mice (CT26 tumours [4]): no major therapeutic effect

CC(=O)[C@]1(O)Cc2c(O)c3c(c(O)c2[C@@H](O[C@H]2C[C@H](N)[C@H](O)[C@H](C)O2)C1)C(=O)c1ccccc1C3=O [idarubicin]
immunogenicity of cell death (protection against tumour growth, anti-tumour vaccination) (CT26 tumour cells [2]; [7]): elicited immunogenic cell death

CO[C@@]12[C@H](COC(N)=O)C3=C(C(=O)C(C)=C(N)C3=O)N1C[C@@H]1N[C@@H]12 [mitomycin C]
immunogenicity of cell death (protection against tumour growth, anti-tumour vaccination) (CT26 tumour cells [2]; mouse, in vivo): failed to induce immunogenic apoptosis | induction of CRT exposure at the cell surface (cell surface CRT): cannot promote CRT exposure on tumor cell surface | induction of ecto-CRT and/or ecto-Erp57 (cell surface CRT): fail to induce ecto-CRT and/or ecto-Erp57 | therapeutic effect of single agent on established tumours, immunocompetent mice (CT26 tumours [3]): no major therapeutic effect | therapeutic effect of single agent on established tumours, nu/nu mice (CT26 tumours [4]): no major therapeutic effect

C/C=C(/C)C(=O)O[C@H]1C(C)=C2[C@H]([C@@H]1OC(=O)CCCCCCC)[C@@](C)(OC(C)=O)C[C@H](OC(=O)CCC)[C@@]1(O)[C@H]2OC(=O)[C@@]1(C)O [thapsigargin]
immunogenicity of cell death (protection against tumour growth, anti-tumour vaccination) (CT26 tumour cells [2]; [7]): failed to induce immunogenic apoptosis

VKKKKIKREIKI-lkaravafsekv (VKKKKIKREIKILKARAVAFSEKV; Artificial sequence including a fragment of GADD34 and a translocation motif) [mutant control peptide]
exposure of calreticulin, HCT116 cells (calreticulin [5]): did not induce calreticulin exposure | exposure of calreticulin, CT26 cells (calreticulin [6]): did not induce calreticulin exposure

tunicamycin
immunogenicity of cell death (protection against tumour growth, anti-tumour vaccination) (CT26 tumour cells [2]; [7]): failed to induce immunogenic apoptosis
